{
  "source": "patent US20120276064A1",
  "about": "“METHODS AND COMPOSITIONS FOR REJUVENATION AND EXPANSION OF STEM CELLS” (priority 2011, published 2012)",
  "key": {"young and old MuSCs": {"tested_on": "young and old MuSCs", "assay": "Bulk proliferation of MuSCs in soft hydrogel culture", "format": "cell-based, mouse", "conditions": "soft (12 kPa) hydrogel, 10 μM, one week", "description": "MuSC culture and treatment. Following isolation, MuSCs were pelleted and resuspended into myogenic cell culture medium containing DMEM/F10 (50:50), 15% FBS, 2.5 ng/ml bFGF, and 1% penicillin/streptomycin. MuSCs were seeded at 1000 cells per well (24-well plate size wells, 2.0 cm^2 surface area) on laminin-tethered hydrogels of either 12 kPa (soft) or ˜10^6 kPa (rigid) rigidities. Cells were maintained at 37° C. in 5% CO2. Media was changed daily. […]\nProliferation assays. MuSC proliferation in hydrogel culture was assessed at both the clonal and bulk levels. […] Cell proliferation was monitored by time-lapse microscopy from 12 hours (day 0) to four days post-seeding as described previously using a PALM/AxioObserver Z1 system (Carl Zeiss MicroImaging) with custom environmental control chamber and motorized stage. Images were recorded every 20 min at 5× magnification. […] After one week, cells were trypsinized and counted on a hemocytometer."}, "[1]": {"tested_on": "p21, Myogenin, Pax7 transcripts in MuSCs", "assay": "Quantitative real-time PCR gene expression in hydrogel-cultured MuSCs", "format": "cell-based, mouse", "conditions": "old MuSCs, soft hydrogel, 10 μM, one week", "description": "MuSC culture and treatment. Following isolation, MuSCs were pelleted and resuspended into myogenic cell culture medium containing DMEM/F10 (50:50), 15% FBS, 2.5 ng/ml bFGF, and 1% penicillin/streptomycin. MuSCs were seeded at 1000 cells per well (24-well plate size wells, 2.0 cm^2 surface area) on laminin-tethered hydrogels of either 12 kPa (soft) or ˜10^6 kPa (rigid) rigidities. Cells were maintained at 37° C. in 5% CO2. Media was changed daily. For proliferation and p38 inhibition studies, the following ligands/inhibitors were supplemented in the myogenic medium and maintained consistently through the experiment: 25 ng/ml Wnt7a (R&D Systems, Minneapolis, Minn.), 25 ng/ml Jagged1-Fc (R&D Systems, Minneapolis, Minn.), 10 nM tautomycetin (PP1 inhibitor; Tocris Bioscience, Ellisville, Mo.), 10 μM SB202190 or 10 μM SB203580 (p38 inhibitors; EMD Chemicals, Gibbstown, N.J.), 1 μM SB431542 (ALK4/5/7 inhibitor; Tocris Bioscience), or 0.1% DMSO carrier control. All MuSC cell culture assays and transplantations were performed after one week of culture unless noted otherwise.\nQuantitative real-time PCR. RNA was isolated from freshly isolated and cultured cells using the RNeasy Micro kit (Qiagen, Valencia, Calif.). Total RNA from each sample was reverse transcribed using the High Capacity cDNA RT kit (Applied Biosystems, Carlsbad, Calif.). cDNA was subjected to real-time PCR using a SYBR Green PCR Master Mix (Applied Biosystems). Real-time PCR was performed using an ABI 7900HT Real Time PCR system and software (Applied Biosystems). Samples were cycled at 95° C. for 10 min and then 40 cycles of 95° C. for 15 sec and 60° C. for 1 min. To quantify relative transcript levels, the 2^−ΔΔCt method was used, and freshly isolated young MuSCs were used as reference value (plotted as 1 in all graphs). Gapdh was used as a normalizing gene. Primer sequences for Gapdh, p21, myogenin, and Pax7 were obtained from literature or using NIH Primer3."}, "[2]": {"tested_on": "tibialis anterior muscle of notexin-injured old mice", "assay": "In vivo force measurements after systemic SB202190 administration", "design": "species or system mouse", "conditions": "5 mg/kg IP, 5 daily injections starting one day after notexin injury, two months post-injury", "description": "Systemic SB202190 administration. Old mice were systemically administered SB202190 (5 mg/kg body weight in 0.9% NaCl/H2O) with five daily doses by IP injection starting at one day after NTX injury.\nIn vivo force measurements. Force measurements were performed on tibialis anterior (TA) muscles in vivo in anesthetized mice, as previously described. The hindlimb was shaved and fixed to a frame to immobilize it without compromising the blood supply to the leg. The animal was warmed on an isothermal pad and by heat lamp. A small incision was placed in the skin directly above the TA muscle. The distal tendon was sutured to a thin metal hook and then attached to a force transducer (300C-LR; Aurora Scientific, Aurora, Ontario). Distal tendons from all front lower hindlimb muscles other than TA were cut, leaving TA isolated during attachment to the force transducer. The muscles and tendons were kept moist by periodic wetting with saline (0.9% sodium chloride) solution. […] Muscle force and synchronization pulses were recorded for 2 seconds immediately prior to the stimulation and 3 seconds after the end of the stimulation. […] Data were collected with a PCI-6251 data acquisition card (National Instruments, Austin, Tex.) and analyzed in Matlab. Specific force values were calculated by normalizing the force measurements by the muscle physiological cross-sectional area (PCSA), as described previously: […]"}},
  "data": [
    {"smiles": "Oc1ccc(-c2nc(-c3ccncc3)c(-c3ccc(F)cc3)[nH]2)cc1", "note": "[SB202190]", "values": [
      {"measurement": "Increase in total cell numbers (relative to seeding)", "setting": "young and old MuSCs", "result": "~30", "unit": "fold"},
      {"measurement": "Stimulation of proliferation of hydrogel-cultured MuSCs (in words)", "setting": "young and old MuSCs", "result": "profound stimulation of proliferation"},
      {"measurement": "Transcription of the MuSC transcription factor Pax7", "setting": "[1]", "result": "increased"},
      {"measurement": "Transcription of the cell cycle inhibitor p21", "setting": "[1]", "result": "decreased"},
      {"measurement": "Transcription of the commitment marker Myogenin", "setting": "[1]", "result": "decreased"},
      {"measurement": "Recovery of twitch and tetanus forces", "setting": "[2]", "result": "aided recovery"}
    ]}
  ]
}
